Measured values: US8841332B2, “Fungicidal N-(2-phenoxyethyl)carboxamide derivatives and their aza, thia and sila analogues” (Bayer Intellectual Property GmbH, priority 2008, dated 2014)

Experiment: logP determination by HPLC on a reversed-phase column (C 18), EEC Directive 79/831 Annex V.A8
Assay type: physicochemical
Conditions: HPLC reversed-phase C 18, 40° C., 0.1% aqueous formic acid and acetonitrile, gradient 10% to 90% acetonitrile
Procedure: In the table 1, the logP values were determined in accordance with EEC Directive 79/831 Annex V.A8 by HPLC (High Performance Liquid Chromatography) on a reversed-phase column (C 18), using the method described below: Temperature: 40° C.; Mobile phases: 0.1% aqueous formic acid and acetonitrile; linear gradient from 10% acetonitrile to 90% acetonitrile. Calibration was carried out using unbranched alkan-2-ones (comprising 3 to 16 carbon atoms) with known logP values (determination of the logP values by the retention times using linear interpolation between two successive alkanones).

logP | SMILES
4.72 | Cn1cc(C(=O)N(CCOc2c(Cl)cc(Cl)cc2Cl)C2CCCC2)c(C(F)F)n1 [Example 24]
3.78 | CC(COc1ccc(Cl)cc1Cl)N(C(=O)c1cn(C)nc1I)C1CC1 (centres unmarked) [Example 19]
